The values below come from paper PMC9487510, “A Novel Oral GyrB/ParE Dual Binding Inhibitor Effective against Multidrug-Resistant Neisseria gonorrhoeae and Other High-Threat Pathogens” (Antimicrobial Agents and Chemotherapy, 2022).

One data set concerns VISA. In words: MIC, in vitro susceptibility testing (CLSI). The data set is classed as cell-based, Staphylococcus aureus. As to conditions: for MIC: Staphylococcus aureus, VISA.
Data set [1] relates to vancomycin-resistant enterococci (VRE). In words: MIC, in vitro susceptibility testing (CLSI). As to conditions: Enterococcus. In kind it is cell-based.
A further data set concerns B. anthracis. The data set is described as follows: microbe, parasite or virus in culture. In kind it is cell-based. As to conditions: for MIC: Bacillus anthracis.
The nature of the next data set: Serum protein binding. The data set is classed as in vitro ADME.
A further data set has as its system Neisseria. The data set is classed as cell-based, N. gonorrhoeae. As to conditions: at 1× MIC; resistance not observed; data not shown.

The structures appear in SMILES notation. In brackets after ≈: the same amount, converted by molar mass.

A word on the fraction unbound: it is the share of the substance not bound to proteins or other matrix. For the molecule `CNc1cc(F)cc2c1[nH]c1nc(Oc3cnc(C)nc3)nc(N3CCC4(CC3)CO[C@@H](CO)C4)c12` [JSF-2414], the MIC range in the data set on VISA (N = 8) is 0.0156 to 0.063 µg/mL; with B. anthracis (N = 2), 0.049 to 0.098 µg/mL. The MIC against VISA (strain 2 11 43) is 0.0156 to 0.031 µg/mL (≈ 0.0316 to 0.0628 µM); against VISA (strain 2 11 56), 0.063 µg/mL (≈ 0.128 µM); with VISA (strain 2 11 57), 0.031 to 0.063 µg/mL (≈ 0.0628 to 0.128 µM); in the data set on VISA (strain 2 11 61), 0.0156 to 0.031 µg/mL (≈ 0.0316 to 0.0628 µM); against VISA (strain 2 11 71), 0.0156 to 0.031 µg/mL (≈ 0.0316 to 0.0628 µM); with VISA (strain 2 11 78), 0.0156 to 0.031 µg/mL (≈ 0.0316 to 0.0628 µM). The MIC was 0.031 µg/mL (≈ 0.0628 µM) in the data set with VISA (strain 2 11 86); 0.0156 to 0.031 µg/mL (≈ 0.0316 to 0.0628 µM) against VISA (strain 2 13 52); > 0.5 µg/mL in data set [1] (strain 2138); 0.002 µg/mL (≈ 0.00405 µM) in data set [1] (strain 2139); 0.008 µg/mL (≈ 0.0162 µM) in data set [1] (strain 2927); 0.004 µg/mL (≈ 0.0081 µM) in data set [1] (strain 2966). Further, the MIC in data set [1] (strain 2967) was 0.031 µg/mL (≈ 0.0628 µM); in data set [1] (strain 3090), > 0.5 µg/mL; in data set [1] (strain 3091) it was 0.002 µg/mL (≈ 0.00405 µM); in data set [1] (strain 3322), 0.016 µg/mL (≈ 0.0324 µM); in the data set on B. anthracis (strain Ames), 0.049 µg/mL (≈ 0.0993 µM); with B. anthracis (strain Vollum V1B), 0.098 µg/mL (≈ 0.199 µM). Besides, the unbound share (fraction unbound) in the data set “Serum protein binding” was 0.012. For the same molecule, the spontaneous resistance frequency in the data set on Neisseria is recorded as < 7.5 × 10^−4.
